What was measured:
8−OHdG = assay: urinary 8-OHdG production rate in placebo-controlled double-blind parallel-group human trial (ELISA); assay type: in vivo; conditions: healthy adult men and women 45-65 years; PQQ disodium salt 20 mg hard capsule after breakfast daily, 3 months; early-morning urine before and at 4, 8, 12 weeks; result in words (rate calculated in ng/kg/hr)
[1] = test system: hexanoyl-lysine (ヘキサノイルリジン(HEL)); assay: urinary hexanoyl-lysine (HEL) production rate in the same human trial (ELISA); assay type: in vivo; conditions: healthy adult men and women 45-65 years; PQQ disodium salt 20 mg hard capsule after breakfast daily, 3 months; urine from same two groups as Example 1; result in words (rate calculated in pmol/kg/hr)

For O=C(O)c1cc(C(=O)O)c2c(n1)C(=O)C(=O)c1cc(C(=O)O)[nH]c1-2 [PQQ, ピロロキノリンキノン, 二ナトリウム塩], the “8−OHdG production rate” value (8−OHdG) was “低下傾向” and the HEL production rate [1] was “低下傾向”.
